From patent US8247170B2, “Detection of penicillin tolerance in Group B Streptococcus: single nucleotide polymorphisms in penicillin binding protein 4” (priority 2008, dated 2012)

Tested on: GBS clinical isolates and laboratory strains
Assay: Macrobroth penicillin tolerance assay
Type: cell-based, Group B Streptococcus
Details: for 10xMIC, regrowth O.D.600: Penicillin G 10×MIC90 48 h; for 10xMIC, regrowth O.D.600 / 30xMIC, regrowth O.D.600 / 100xMIC, regrowth O.D.600 / 300xMIC, regrowth O.D.600: then 24 h drug-free; for 30xMIC, regrowth O.D.600: Penicillin G 30×MIC90 48 h; for 100xMIC, regrowth O.D.600: Penicillin G 100×MIC90 48 h; for 300xMIC, regrowth O.D.600: Penicillin G 300×MIC90 48 h
Protocol: Using this modified penicillin tolerance assay, tolerant strains from the GBS clinical isolates can be more efficiently identified. In this macrobroth culture format, 25 ml THB broth GBS cultures (containing clinical isolates) were grown to an early exponential growth phase (˜0.2 OD600). Cell cultures (6 ml) were collected and divided into 4 culture tubes. […] Cell cultures were shaken at 150 rpm in order to maintain cells in suspension for proper growth. Subcultures (1/20 dilution) of cells were put into fresh THB containing […] Penase (i.e., 100 μl of Penase 10,000 U stock into 4 ml THB culture). Subcultures were allowed to grow for 24 hours at 37° C. Cell growth was monitored by OD (see Example 2).
(I) Bacterial Strains and Culture Conditions. GBS strains A909 (serotype IA), 515 (serotype IA), NEM316 (serotype III), COHI (serotype III), 2603V/R (serotype V) and O90R (non-typable) were used in this study. E. coli Top10 cells were used for the recombination experiments. GBS was cultured in Todd Hewitt broth (THB) or Tryptic Soy 5% sheep blood (TS) media and E. coli in Luria-broth (LB) medium or agar. Antibiotics were used at the following concentrations: for GBS—penicillin G (MIC90 0.06 μg ml^−1), ampicillin (MIC90 0.12 μg ml^−1), vancomycin (MIC90 2 μg ml^−1), cefazolin (MIC90 1 μg ml^−1) and chloramphenicol (5 μg ml^−1); for E. coli—ampicillin (50 μg ml^−1) and chloramphenicol (5 μg ml^−1). Both GBS and E. coli cultures were grown at 37° C. (II) Tolerance Using the MBC:MIC Ratio Method. Three GBS laboratory strains (i.e., A909, NEM316, and O90R) were cultured overnight for 18 h at 37° C. in THB. Subcultures in THB were subsequently grown to exponential phase (OD600˜0.3; i.e. 5×10^5 cfu/ml) at 37° C. Cell cultures were then exposed to different concentrations of antibiotics (Penicillin G, Ampicillin, Cefozolin or Vancomycin). […] Cell cultures were dispersed every 18 h before OD600 was measured to determine the lowest concentration of antibiotic with 90% growth inhibition (MIC90). Antibiotic treated cells (8 μl) from each well were re-suspended into PBS (100 μl) and plated (54 μl) on TS agar plates and allowed to grow for an additional 24 h at 37° C. Cell count was performed to determine the lowest concentration of antibiotic with 90% killing of original inoculums (MBC90). (III) Penicillin Killing and Regrowth Tolerance Assay by Microbroth Dilution. Three GBS laboratory strains (i.e., A909, NEM316, and O90R) were cultured overnight for 18 h at 37° C. in THB. Subcultures in THB were subsequently grown to exponential phase (OD600˜0.3) at 37° C. Cell cultures were then exposed to different concentrations of Penicillin G (Sigma, St. Louis, Mo.). […] Cell cultures were dispersed. A 1:20 dilution of cells was re-plated into new wells containing fresh THB with 500 U Penase (to degrade residual penicillin). Cell cultures were allowed to re-grow for an additional 24 h at 37° C. before the OD600 was measured. (IV) Measuring Cell Viability by Determining ATP Concentration. GBS strains were cultured for 18 h at 37° C. in THB. These cells were inoculated into fresh THB and subsequently allowed to grow to exponential phase (OD600 0.25-0.3) at 37° C. One ml of each culture was centrifuged at 5,000×g for 4 min. The cell pellet was re-suspended in ATP-free water. Cellular ATP was extracted using trichloroacetic acid (TCA) (5%) for 2 min and subsequently neutralized with Tris-EDTA-0.1M NaOAc, pH 7.75 to 10×TCA volume. The initial (in.) cellular ATP concentration ([ATP]) was measured using the ENLITEN (Promega) luciferase based reaction kit. THB cultures were then treated with 100×MIC90 Penicillin G for 22 h. The experimental (exp.) cellular ATP was extracted and the concentration was measured as stated above. Based on the calculations ([ATP] exp.)/([ATP] in./O.D. in.), differences in viability were equated with the change in [ATP]. (V) Measuring Penicillin Induced Lysis. Three GBS laboratory strains (A909, NEM316, and O90R) were cultured for 18 h at 37° C. in THB. […]

[1] = GBS laboratory strain 2603V/R (V)
[2] = GBS laboratory strain A909 (Ia)
[3] = GBS laboratory strain COH1 (III)
[4] = GBS laboratory strain NEM316 (III)
[5] = GBS laboratory strain O90R (NT)

For `CC1(C)S[C@@H]2[C@H](NC(=O)Cc3ccccc3)C(=O)N2[C@H]1C(=O)O` [Penicillin G], the “% of clinical isolates PE-PT” value (51 clinical isolates) was 23.5%, the “% of clinical isolates PT (penicillin tolerant)” value (51 clinical isolates) was 15.7% and the “% of clinical isolates S (penicillin susceptible)” value (51 clinical isolates) was 60.8%. For the same compound, the Phenotype (GBS laboratory strain 515 (Ia)) was “Penicillin Tolerance (PT)”, the “10xMIC, regrowth O.D.600” value (GBS laboratory strain 515 (Ia)) was “++ (“++” indicates an O.D.600 of 0.251 to 0.750)” and the “30xMIC, regrowth O.D.600” value (GBS laboratory strain 515 (Ia)) was “+++ (“+++” indicates an O.D.600 of 0.751 to 1.500)”. The “100xMIC, regrowth O.D.600” value (GBS laboratory strain 515 (Ia)) was “++ (“++” indicates an O.D.600 of 0.251 to 0.750)”, the “300xMIC, regrowth O.D.600” value (GBS laboratory strain 515 (Ia)) was “++ (“++” indicates an O.D.600 of 0.251 to 0.750)” and the Phenotype [1] was “Susceptible (S)”. For the same compound, the “10xMIC, regrowth O.D.600” value [1] was “−− (“−−” indicates an O.D.600 of 0.001 to 0.099)”, the “30xMIC, regrowth O.D.600” value [1] was “−− (“−−” indicates an O.D.600 of 0.001 to 0.099)” and the “100xMIC, regrowth O.D.600” value [1] was “−− (“−−” indicates an O.D.600 of 0.001 to 0.099)”. For the same compound, the “300xMIC, regrowth O.D.600” value [1] was “−− (“−−” indicates an O.D.600 of 0.001 to 0.099)”, the Phenotype [2] was “Susceptible (S)” and the “10xMIC, regrowth O.D.600” value [2] was “−− (“−−” indicates an O.D.600 of 0.001 to 0.099)”. For the same compound, the “30xMIC, regrowth O.D.600” value [2] was “−− (“−−” indicates an O.D.600 of 0.001 to 0.099)”, the “100xMIC, regrowth O.D.600” value [2] was “−− (“−−” indicates an O.D.600 of 0.001 to 0.099)” and the “300xMIC, regrowth O.D.600” value [2] was “−− (“−−” indicates an O.D.600 of 0.001 to 0.099)”. The Phenotype [3] was “Paradoxical Effect-Penicillin Tolerance”, the “10xMIC, regrowth O.D.600” value [3] was “−− (“−−” indicates an O.D.600 of 0.001 to 0.099)” and the “30xMIC, regrowth O.D.600” value [3] was “+++ (“+++” indicates an O.D.600 of 0.751 to 1.500)”. The “100xMIC, regrowth O.D.600” value [3] was “+++ (“+++” indicates an O.D.600 of 0.751 to 1.500)”, the “300xMIC, regrowth O.D.600” value [3] was “++ (“++” indicates an O.D.600 of 0.251 to 0.750)” and the Phenotype [4] was “Paradoxical Effect-Penicillin Tolerance”. For the same compound, the “10xMIC, regrowth O.D.600” value [4] was “+++ (“+++” indicates an O.D.600 of 0.751 to 1.500)”, the “30xMIC, regrowth O.D.600” value [4] was “−− (“−−” indicates an O.D.600 of 0.001 to 0.099)” and the “100xMIC, regrowth O.D.600” value [4] was “++ (“++” indicates an O.D.600 of 0.251 to 0.750)”. For the same compound, the “300xMIC, regrowth O.D.600” value [4] was “+++ (“+++” indicates an O.D.600 of 0.751 to 1.500)”, the Phenotype [5] was “Penicillin Tolerance (PT)” and the “10xMIC, regrowth O.D.600” value [5] was “+++ (“+++” indicates an O.D.600 of 0.751 to 1.500)”. The “30xMIC, regrowth O.D.600” value [5] was “+++ (“+++” indicates an O.D.600 of 0.751 to 1.500)”, the “100xMIC, regrowth O.D.600” value [5] was “+++ (“+++” indicates an O.D.600 of 0.751 to 1.500)” and the “300xMIC, regrowth O.D.600” value [5] was “+++ (“+++” indicates an O.D.600 of 0.751 to 1.500)”. For the same compound, the “10xMIC, regrowth O.D.600” value (GBS strain 12 (III)) was “−− (“−−” indicates an O.D.600 of 0.001 to 0.099)”, the “30xMIC, regrowth O.D.600” value (GBS strain 12 (III)) was “−− (“−−” indicates an O.D.600 of 0.001 to 0.099)” and the “100xMIC, regrowth O.D.600” value (GBS strain 12 (III)) was “−− (“−−” indicates an O.D.600 of 0.001 to 0.099)”. For the same compound, the “300xMIC, regrowth O.D.600” value (GBS strain 12 (III)) was “−− (“−−” indicates an O.D.600 of 0.001 to 0.099)”, the “10xMIC, regrowth O.D.600” value (GBS strain 18 (NT)) was “−− (“−−” indicates an O.D.600 of 0.001 to 0.099)” and the “30xMIC, regrowth O.D.600” value (GBS strain 18 (NT)) was “−− (“−−” indicates an O.D.600 of 0.001 to 0.099)”. For the same compound, the “100xMIC, regrowth O.D.600” value (GBS strain 18 (NT)) was “−− (“−−” indicates an O.D.600 of 0.001 to 0.099)”, the “300xMIC, regrowth O.D.600” value (GBS strain 18 (NT)) was “−− (“−−” indicates an O.D.600 of 0.001 to 0.099)” and the “10xMIC, regrowth O.D.600” value (GBS strain 21 (NT)) was “−− (“−−” indicates an O.D.600 of 0.001 to 0.099)”. The “30xMIC, regrowth O.D.600” value (GBS strain 21 (NT)) was “−− (“−−” indicates an O.D.600 of 0.001 to 0.099)”, the “100xMIC, regrowth O.D.600” value (GBS strain 21 (NT)) was “−− (“−−” indicates an O.D.600 of 0.001 to 0.099)” and the “300xMIC, regrowth O.D.600” value (GBS strain 21 (NT)) was “−− (“−−” indicates an O.D.600 of 0.001 to 0.099)”. For the same compound, the “10xMIC, regrowth O.D.600” value (GBS strain 22 (V)) was “++ (“++” indicates an O.D.600 of 0.251 to 0.750)”, the “30xMIC, regrowth O.D.600” value (GBS strain 22 (V)) was “++ (“++” indicates an O.D.600 of 0.251 to 0.750)” and the “100xMIC, regrowth O.D.600” value (GBS strain 22 (V)) was “++ (“++” indicates an O.D.600 of 0.251 to 0.750)”. For the same compound, the “300xMIC, regrowth O.D.600” value (GBS strain 22 (V)) was “++ (“++” indicates an O.D.600 of 0.251 to 0.750)”, the “10xMIC, regrowth O.D.600” value (GBS strain 26 (NT)) was “−− (“−−” indicates an O.D.600 of 0.001 to 0.099)” and the “30xMIC, regrowth O.D.600” value (GBS strain 26 (NT)) was “−− (“−−” indicates an O.D.600 of 0.001 to 0.099)”. The “100xMIC, regrowth O.D.600” value (GBS strain 26 (NT)) was “−− (“−−” indicates an O.D.600 of 0.001 to 0.099)”, the “300xMIC, regrowth O.D.600” value (GBS strain 26 (NT)) was “−− (“−−” indicates an O.D.600 of 0.001 to 0.099)” and the “10xMIC, regrowth O.D.600” value (GBS strain 46 (Ib)) was “−− (“−−” indicates an O.D.600 of 0.001 to 0.099)”. The “30xMIC, regrowth O.D.600” value (GBS strain 46 (Ib)) was “−− (“−−” indicates an O.D.600 of 0.001 to 0.099)”, the “100xMIC, regrowth O.D.600” value (GBS strain 46 (Ib)) was “−− (“−−” indicates an O.D.600 of 0.001 to 0.099)” and the “300xMIC, regrowth O.D.600” value (GBS strain 46 (Ib)) was “−− (“−−” indicates an O.D.600 of 0.001 to 0.099)”. The “10xMIC, regrowth O.D.600” value (GBS strain 47 (III)) was “−− (“−−” indicates an O.D.600 of 0.001 to 0.099)” and the “30xMIC, regrowth O.D.600” value (GBS strain 47 (III)) was “−− (“−−” indicates an O.D.600 of 0.001 to 0.099)”.
